One experiment concerns the target T1, PERK (Homo sapiens, UniProt Q9NZJ5).
T1 sequence (Q9NZJ5 30-1116): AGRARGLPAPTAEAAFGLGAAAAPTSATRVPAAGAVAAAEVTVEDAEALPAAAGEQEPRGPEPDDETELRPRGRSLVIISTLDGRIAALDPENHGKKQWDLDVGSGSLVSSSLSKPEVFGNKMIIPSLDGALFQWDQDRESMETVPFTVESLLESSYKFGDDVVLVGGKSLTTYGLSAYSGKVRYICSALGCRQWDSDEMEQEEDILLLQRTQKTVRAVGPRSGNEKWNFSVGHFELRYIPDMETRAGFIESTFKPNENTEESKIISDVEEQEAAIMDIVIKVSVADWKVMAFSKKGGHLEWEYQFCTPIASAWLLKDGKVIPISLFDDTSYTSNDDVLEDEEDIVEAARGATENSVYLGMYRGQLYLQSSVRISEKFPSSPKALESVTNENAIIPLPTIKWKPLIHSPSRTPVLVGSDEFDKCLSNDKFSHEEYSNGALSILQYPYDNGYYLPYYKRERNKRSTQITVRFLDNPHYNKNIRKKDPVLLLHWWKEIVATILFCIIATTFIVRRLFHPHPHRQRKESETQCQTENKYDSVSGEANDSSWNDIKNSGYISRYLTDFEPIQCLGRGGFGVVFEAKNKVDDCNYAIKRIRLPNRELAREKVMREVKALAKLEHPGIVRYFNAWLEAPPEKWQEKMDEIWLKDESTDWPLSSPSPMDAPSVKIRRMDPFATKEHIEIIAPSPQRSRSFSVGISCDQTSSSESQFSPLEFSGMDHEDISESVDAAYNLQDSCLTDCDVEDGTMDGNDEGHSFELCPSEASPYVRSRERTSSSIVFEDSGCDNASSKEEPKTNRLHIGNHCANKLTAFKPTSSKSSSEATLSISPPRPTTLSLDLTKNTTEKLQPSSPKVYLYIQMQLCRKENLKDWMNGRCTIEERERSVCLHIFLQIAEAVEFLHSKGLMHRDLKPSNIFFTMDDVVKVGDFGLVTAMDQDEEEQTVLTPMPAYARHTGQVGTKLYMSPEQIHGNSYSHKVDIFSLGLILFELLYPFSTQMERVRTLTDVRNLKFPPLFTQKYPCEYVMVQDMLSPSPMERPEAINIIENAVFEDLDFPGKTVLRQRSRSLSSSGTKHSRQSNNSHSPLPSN
Kind of experiment: PERK enzyme assay (HTRF). It is filed as biochemical. Particulars: 500 μM ATP; at least one experimental run; read-out: PERK Enzyme (500 μM ATP) IC50. In outline:
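HTRF read-out after 2 h of EDTA-quenched reactions, detecting phospho-eIF2α with Eu/APC reagents, gave IC50 values. Reaction: 0.75 nM GST-PERK, 30–60 min compound pre-incubation (max 1% DMSO), then 60 min with 40 nM biotin-eIF2α and 500 μM ATP, HEPES pH 7.5 buffer.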
(In general: TR-FRET usually uses a lanthanide donor and a delayed reading to cut background.)
As for `CCN1C(=O)N(c2ccc(-c3cn(C)c4ncnc(N)c34)c(F)c2)CC1c1cc(F)cc(F)c1` (single isomer, unassigned) [Example 172, 1-(4-(4-amino-7-methyl-7H-pyrrolo[2,3-d]pyrimidin-5-yl)-3-fluorophenyl)-4-(3,5-difluorophenyl)-3-ethylimidazolidin-2-one], the IC50 came to 30.1 nM. On the same count and under the same terms, for `Cc1nc(N)c2c(-c3ccc(N4CC(c5ccc(F)cc5F)N(C)C4=O)cc3F)cn(C)c2n1` (single isomer, unassigned) [Example 66, 1-(4-(4-amino-2,7-dimethyl-7H-pyrrolo[2,3-d]pyrimidin-5-yl)-3-fluorophenyl)-4-(2,4-difluorophenyl)-3-methylimidazolidin-2-one] the value was 86.9 nM; for `Cc1nc(N)c2c(-c3ccc(N4CC(c5ccc(F)cc5)N(C)C4=O)cc3F)cn(C)c2n1` (single isomer, unassigned) [Example 70, 1-(4-(4-amino-2,7-dimethyl-7H-pyrrolo[2,3-d]pyrimidin-5-yl)-3-fluorophenyl)-4-(4-fluorophenyl)-3-methylimidazolidin-2-one], 18.6 nM.

Staying with this experiment, now noted: PERK Enzyme (500 μM ATP) IC50; at least one experimental run; read-out: PERK Activity.
Consider `CN1C(=O)N(c2ccc(-c3cn(C4CC4)c4ncnc(N)c34)c(F)c2)CC1c1ccc(F)c(Cl)c1` (stereo not shown) [Example 132, 1-(4-(4-amino-7-cyclopropyl-7H-pyrrolo[2,3-d]pyrimidin-5-yl)-3-fluorophenyl)-4-(3-chloro-4-fluorophenyl)-3-methylimidazolidin-2-one], for which the IC50 is less than 100 nM. In the case of `CN1C(=O)N(c2ccc(-c3cn(C)c4ncnc(N)c34)c(F)c2)CC1c1cc(F)ccc1F` (single isomer, unassigned) [Example 150, 1-(4-(4-amino-7-methyl-7H-pyrrolo[2,3-d]pyrimidin-5-yl)-3-fluorophenyl)-4-(2,5-difluorophenyl)-3-methylimidazolidin-2-one], the IC50 was less than 100 nM.

With `CCN1C(=O)N(c2ccc(-c3cn(C)c4ncnc(N)c34)c(F)c2)CC1c1cc(F)cc(F)c1` (single isomer, unassigned) [Example 172, 1-(4-(4-amino-7-methyl-7H-pyrrolo[2,3-d]pyrimidin-5-yl)-3-fluorophenyl)-4-(3,5-difluorophenyl)-3-ethylimidazolidin-2-one], the IC50 was less than 100 nM. For `CN1C(=O)N(c2ccc(-c3cn(C)c4ncnc(N)c34)c(F)c2)CC1c1cc(F)cc(Cl)c1` (single isomer, unassigned) [Example 51, 1-(4-(4-amino-7-methyl-7H-pyrrolo[2,3-d]pyrimidin-5-yl)-3-fluorophenyl)-4-(3-chloro-5-fluorophenyl)-3-methylimidazolidin-2-one], the IC50 was less than 100 nM.

As for `CCN1C(=O)N(c2ccc(-c3cn(CC(F)F)c4ncnc(N)c34)c(F)c2)CC1c1cc(F)ccc1F` (stereo not shown) [Example 17, 1-(4-(4-amino-7-(2,2-difluoroethyl)-7H-pyrrolo[2,3-d]pyrimidin-5-yl)-3-fluorophenyl)-4-(2,5-difluorophenyl)-3-ethylimidazolidin-2-one], the IC50 is 100 to 1000 nM. In the case of `CN1C(=O)N(c2ccc(-c3cn(C)c4ncnc(N)c34)c(F)c2)CC1c1cccc(OC(F)F)c1` (stereo not shown) [Example 73, 1-(4-(4-amino-7-methyl-7H-pyrrolo[2,3-d]pyrimidin-5-yl)-3-fluorophenyl)-4-(3-(difluoromethoxy)phenyl)-3-methylimidazolidin-2-one], the IC50 fell in the range of 100 to 1000 nM. Same read-out and setting: for `CN1C(=O)N(c2ccc(-c3cn(C4CC4)c4ncnc(N)c34)c(F)c2)CC1c1ccc(F)c(F)c1` (stereo not shown) [Example 114, 1-(4-(4-amino-7-cyclopropyl-7H-pyrrolo[2,3-d]pyrimidin-5-yl)-3-fluorophenyl)-4-(3,4-difluorophenyl)-3-methylimidazolidin-2-one] the value was less than 100 nM.

As for `CCN1C(=O)N(c2ccc(-c3cn(C4CC4)c4ncnc(N)c34)c(F)c2)CC1c1cc(F)ccc1F` (single isomer, unassigned) [Example 123, 1-(4-(4-amino-7-cyclopropyl-7H-pyrrolo[2,3-d]pyrimidin-5-yl)-3-fluorophenyl)-4-(2,5-difluorophenyl)-3-ethylimidazolidin-2-one], the IC50 is 100 to 1000 nM. Take `Cc1cccc(C2CC(=O)N(c3ccc(-c4cn(C)c5ncnc(N)c45)c(F)c3)C2)n1` (stereo not shown) [Example 33, 1-(4-(4-amino-7-methyl-7H-pyrrolo[2,3-d]pyrimidin-5-yl)-3-fluorophenyl)-4-(6-methylpyridin-2-yl)pyrrolidin-2-one]: the IC50 was 100 to 1000 nM.

In the case of `CN1C(=O)N(c2ccc(-c3cn(C)c4ncnc(N)c34)c(F)c2)CC1c1cc(F)cc(Cl)c1` (stereo not shown) [Example 16, 1-(4-(4-amino-7-methyl-7H-pyrrolo[2,3-d]pyrimidin-5-yl)-3-fluorophenyl)-4-(3-chloro-5-fluorophenyl)-3-methylimidazolidin-2-one], the IC50 was 100 to 1000 nM.

Take `CCN1C(=O)N(c2ccc(-c3cn(C4CC4)c4ncnc(N)c34)c(F)c2)CC1c1cc(F)ccc1F` (stereo not shown) [Example 120, 1-(4-(4-amino-7-cyclopropyl-7H-pyrrolo[2,3-d]pyrimidin-5-yl)-3-fluorophenyl)-4-(2,5-difluorophenyl)-3-ethylimidazolidin-2-one]: the IC50 was less than 100 nM. Still for that read-out and setting: for `CCN1C(=O)N(c2ccc(-c3cn(C)c4ncnc(N)c34)c(F)c2)CC1c1cccc(F)c1F` (stereo not shown) [Example 75, 1-(4-(4-amino-7-methyl-7H-pyrrolo[2,3-d]pyrimidin-5-yl)-3-fluorophenyl)-4-(2,3-difluorophenyl)-3-ethylimidazolidin-2-one] the value was 100 to 1000 nM; for `Cc1nc(N)c2c(-c3ccc(N4CC(c5ccc(F)cc5F)N(C)C4=O)cc3F)c(C)n(C)c2n1` (single isomer, unassigned) [Example 11, 1-(4-(4-amino-2,6,7-trimethyl-7H-pyrrolo[2,3-d]pyrimidin-5-yl)-3-fluorophenyl)-4-(2,4-difluorophenyl)-3-methylimidazolidin-2-one], less than 100 nM. In the case of `CN1C(=O)N(c2ccc(-c3cn(C)c4ncnc(N)c34)c(F)c2)CC1c1ccc(F)cc1F` (single isomer, unassigned) [Example 47, 1-(4-(4-amino-7-methyl-7H-pyrrolo[2,3-d]pyrimidin-5-yl)-3-fluorophenyl)-4-(2,4-difluorophenyl)-3-methylimidazolidin-2-one], the IC50 is more than 1000 nM. Take `CCN1C(=O)N(c2ccc(-c3cn(C)c4ncnc(N)c34)c(F)c2)CC1c1cc(F)cc(C(F)(F)F)c1` (single isomer, unassigned) [Example 89, 1-(4-(4-amino-7-methyl-7H-pyrrolo[2,3-d]pyrimidin-5-yl)-3-fluorophenyl)-3-ethyl-4-(3-fluoro-5-(trifluoromethyl)phenyl)imidazolidin-2-one]: the IC50 lay in the range of 100 to 1000 nM.

With `Cc1nc(N)c2c(-c3ccc(N4CC(c5ccc(F)cc5F)N(C)C4=O)cc3F)cn(C)c2n1` (single isomer, unassigned) [Example 66, 1-(4-(4-amino-2,7-dimethyl-7H-pyrrolo[2,3-d]pyrimidin-5-yl)-3-fluorophenyl)-4-(2,4-difluorophenyl)-3-methylimidazolidin-2-one], the IC50 was less than 100 nM. The same measure, in the same setting: for `Cc1nc(N)c2c(-c3ccc(N4CC(c5ccc(F)cc5F)N(C)C4=O)cc3F)cn(C3CC3)c2n1` (single isomer, unassigned) [Example 9, 1-(4-(4-amino-7-cyclopropyl-2-methyl-7H-pyrrolo[2,3-d]pyrimidin-5-yl)-3-fluorophenyl)-4-(2,4-difluorophenyl)-3-methylimidazolidin-2-one] the value was more than 1000 nM. The same measure, in the same setting: for `Cc1nc(N)c2c(-c3ccc(N4CC(c5ccc(F)cc5)N(C)C4=O)cc3F)cn(C)c2n1` (single isomer, unassigned) [Example 70, 1-(4-(4-amino-2,7-dimethyl-7H-pyrrolo[2,3-d]pyrimidin-5-yl)-3-fluorophenyl)-4-(4-fluorophenyl)-3-methylimidazolidin-2-one] the value was less than 100 nM; for `CCN1C(=O)N(c2ccc(-c3cn(C)c4ncnc(N)c34)c(F)c2)CC1c1cccc(Cl)c1F` (stereo not shown) [Example 22, 1-(4-(4-amino-7-methyl-7H-pyrrolo[2,3-d]pyrimidin-5-yl)-3-fluorophenyl)-4-(3-chloro-2-fluorophenyl)-3-ethylimidazolidin-2-one], 100 to 1000 nM. Same read-out and setting: for `CN1C(=O)N(c2ccc(-c3cn(C4CC4)c4ncnc(N)c34)c(F)c2)CC1c1ccc(F)c(Cl)c1` (single isomer, unassigned) [Example 134, 1-(4-(4-amino-7-cyclopropyl-7H-pyrrolo[2,3-d]pyrimidin-5-yl)-3-fluorophenyl)-4-(3-chloro-4-fluorophenyl)-3-methylimidazolidin-2-one] the value was less than 100 nM; for `CN1C(=O)N(c2ccc(-c3cn(C)c4ncnc(N)c34)c(F)c2)CC1c1c(F)cccc1F` (stereo not shown) [Example 81, 1-(4-(4-amino-7-methyl-7H-pyrrolo[2,3-d]pyrimidin-5-yl)-3-fluorophenyl)-4-(2,6-difluorophenyl)-3-methylimidazolidin-2-one], less than 100 nM; for `CCN1C(=O)N(c2ccc(-c3cn(C)c4nc(C)nc(N)c34)c(F)c2)CC1c1cc(F)ccc1F` (single isomer, unassigned) [Example 44, 1-(4-(4-amino-2,7-dimethyl-7H-pyrrolo[2,3-d]pyrimidin-5-yl)-3-fluorophenyl)-4-(2,5-difluorophenyl)-3-ethylimidazolidin-2-one], less than 100 nM.

The values are drawn from US20180237441A1, “Chemical Compounds” (GlaxoSmithKline Intellectual Property (No.2) Limited, priority 2015, published 2018).
